Assay results as given in US20240209355A1, “NUCLEIC ACID BINDING PROTEIN FORMULATIONS AND USES THEREOF” (Spotlight Therapeutics, priority 2020, published 2024).
“And” between values parts separate entries of the source, which are not always exact repeats. Equal values may be shown once.

Experiments:
dsDNA target = test: In vitro DNA cleavage of TAGE agent RNPs with re-folded or unfolded sgRNA; assay type: biochemical; conditions: PBS, relative to Cas9(C80A)-2×NLS
Experimental: To assess DNA cleavage, 100 nM of each Cas9 RNP was incubated for 30 minutes at 37° C. with 100 nM of a dsDNA target. DNA cleavage was normalized to DNA cleavage achieved through incubation in buffer alone (i.e., untreated RNP). 1 μl of 20 mg/ml proteinase K was added to the reaction and incubated for 15 minutes at 50° C. The quenching reaction was held at 4° C. prior to separation on a Fragment Analyzer capillary electrophoresis (CE) instrument. 2 μl of the reaction was diluted with 22 μl of TE buffer and analyzed by capillary electrophoresis, per the manufacturer's recommendations. Cleavage reactions were run in triplicate, and background was subtracted from the band intensities. Percent cleavage was quantified with the following equation: % cleavage=(total mass cleaved product)/(total mass of substrate). The results are expressed as % cleavage relative to untreated RNP.
Next, the impact of re-folded gRNA on the in vitro DNA cleavage activity of TAGE agent RNPs was assessed.

primary human T cells [1] = test: Editing by TAGE after pre-incubation of cells with inhibitors, loss of surface CD47 by flow cytometry; assay type: cell-based; conditions: 30 min pre-incubation; for editing of primary T cells by TAGE: DMA, EIPA 100 μM, Cyto D 20 μM, Lat A 10 μM, 3 μM TAGE26, 0.35 μM AB27-TAGE26 or AB2-TAGE26; for editing of primary T cells by an antibody TAGE: Dynasore 80 μM
Experimental: Antibodies were conjugated to Cas9 using the SpyTag2/SpyCatcher system and a guide RNA targeting CD47 was associated with the respective TAGE agents to form RNPs. Primary human T cells were pre-incubated with the indicated drug for 30 minutes. Then, RNPs were added to the cells at the indicated concentration and co-incubated for an additional hour. The cells were washed after one hour to remove inhibitors and RNPs. The percentage of cells that were edited under each condition was measured using a phenotypic readout detecting the loss of surface CD47 by flow cytometry.
Each data point represents a biological replicate. For each group, the horizontal line represents the mean and the error bars represent the standard deviation of the mean. With respect to the descriptions in FIG. 18, NT guide is a TAGE with non-targeting guide RNA; MeOH is methanol (a control for DMA and EIPA; used at 0.5% v/v; DMSO is dimethyl sulfoxide, a control for Cyto D and Lat A (used at 1% v/v); DMA is 5-(N,N-dimethyl)-amiloride, an inhibitor of NHE1 (used at 100 μM); EIPA is 5-(N-ethyl-N-isopropyl)-amiloride, an inhibitor of NHE1, (used at 100 μM); Cyto D is cytochalasin D, an inhibitor of F-actin polymerization (used at 20 μM); and Lat A is latrunculin A, an inhibitor of F-actin polymerization (used at 10 μM).
Antibodies were conjugated to Cas9 using the SpyTag/SpyCatcher system and a guide RNA targeting CD47 was associated with the respective TAGE agents to form an RNP. Primary human T cells were pre-incubated with the indicated drug (nystatin or Dynasore) for 30 minutes. Then, RNPs were added to cells at the indicated concentration and co-incubated for an additional hour. The cells were washed after one hour to remove inhibitors and RNPs. The percentage of cells that were edited under each condition was measured using a phenotypic readout detecting the loss of surface CD47 by flow cytometry. Each data point represents a biological replicate. For each group, the horizontal line represents the mean and the error bars represent the standard deviation of the mean. NT guide stood for TAGE with non-targeting guide RNA. DMSO is dimethylsulfoxide, a control for nystatin and Dynasore, which was used at 2% v/v. Dynasore is an inhibitor of dynamin, which was used at 80 μM. Nystatin was used at 108 μM.

T cells = test: Ex vivo editing with chloroquine, loss of surface CD47 by flow cytometry; assay type: cell-based, human; conditions: chloroquine 10, 30 or 100 μM for 24 hours after 1 hour RNP co-incubation with PBMCs, vs 0 μM
Experimental: FIG. 9 graphically depicts the results of an ex vivo editing assay in which TAGE agents including Cas9-2×NLS:sgBFP, 4×NLS-Cas9-2×NLS, Cas9-2×NLS-SpyCatcher-4×NLS, or IL-2[-SpyTag]:Cas9-2×NLS-SpyCatcher-4×NLS were co-incubated with primary human T cells and assessed for editing in buffers including different levels of chloroquine (0 μM, 10 μM, 30 μM, or 100 μM). A guide RNA targeting CD47 was associated with the respective TAGE agents to form ribonucleoproteins, and the ribonucleoproteins were co-incubated with T cells to test for editing. Editing was measured using a phenotypic readout measuring the loss of surface CD47 using flow cytometry.
In this example, the impact of chloroquine on ex vivo editing by TAGE agents was assessed. RNP TAGE agents including Cas9-2×NLS:sgBFP, 4×NLS-Cas9-2×NLS, Cas9-2×NLS-SpyCatcher-4×NLS, or IL-2-SpyTag:Cas9-2×NLS-SpyCatcher-4×NLS. A guide RNA targeting CD47 (or a non-targeting control, sgBFP) was associated with the respective TAGE agents to form the ribonucleoproteins. The RNPs were co-incubated with PBMCs for 1 hour followed by incubation with 0 μM chloroquine, 10 μM chloroquine, 30 μM chloroquine, or 100 μM chloroquine for 24 hours. The percentage of T cells that were edited by each TAGE was measured using a phenotypic readout detecting the loss of surface CD47 by flow cytometry.

primary human T cells [2] = test: Ex vivo editing by co-incubation in buffers with additives, loss of surface CD47 by flow cytometry; assay type: cell-based; conditions: for genome editing (percentage of edited T cells): 1 hour, increasing NaCl (185-400 mM) and/or glycerol (1-15% w/v); for combined effect of glycerol and sodium chloride on genome editing: e.g. 300 mM NaCl with 12.5% glycerol; for TAGE editing efficacy: additive in combination with NaCl
Experimental: In this example, the impact of glycerol and salt on ex vivo editing by TAGE agents was assessed. Ribonucleoproteins were prepared from TAGE agents including 4×NLS-Cas9-2×NLS. A guide RNA targeting CD47 was associated with the respective TAGE agents to form ribonucleoproteins. […] The cells were washed after one hour to remove the additives and RNPs. The percentage of T cells that were edited under each condition was measured using a phenotypic readout detecting the loss of surface CD47 by flow cytometry. Additionally, the levels of live cells per mL 24 hours after co-incubation in the indicated buffer was assessed for each buffer condition.
In this example, the impact of salt and various polyols (e.g., sugar alcohols) or sugar on ex vivo editing by TAGE agents was assessed. Ribonucleoproteins were prepared from TAGE agents including 4×NLS-Cas9-2×NLS. A guide RNA targeting CD47 was associated with the respective TAGE agents to form ribonucleoproteins. […] Buffers having different salt concentrations (185 mM NaCl or 300 mM NaCl) and sugar alcohol or sugar concentrations ([…], 0.8 M, 1.2 M, 1.6 M, 2.0 M, or 2.4 M) were assessed. The cells were washed after one hour to remove additives and RNPs. The percentage of cells that were edited under each condition was measured using a phenotypic readout detecting the loss of surface CD47 by flow cytometry. Additionally, the levels of live cells per mL 24 hours after co-incubation in the indicated buffer was assessed for each buffer condition.
In this example, the impact of a cationic polymer (e.g., protamine) with or without glycerol on ex vivo editing by RNP TAGE agents was assessed. Ribonucleoproteins were prepared from TAGE agents including 4×NLS-Cas9-2×NLS or AsCas12a. A guide RNA targeting CD47 was associated with the respective TAGE agents to form ribonucleoproteins. […] The cells were washed after one hour to remove additives and RNPs. The percentage of T cells that were edited under each condition was measured using a phenotypic readout detecting the loss of surface CD47 by flow cytometry. Additionally, the levels of light scattering at 340 nm was assessed to detect aggregate formation. […]

primary human T cells [3] = test: Editing by antibody TAGE or CPP-TAGE in T cell media with sugar, sugar alcohol or salt additive, loss of surface CD47 by flow cytometry; assay type: cell-based
Experimental: RNPs at the indicated concentration were co-incubated with primary human T cells for 1 hour in buffer including 0.5 M sucrose. The cells were washed after one hour to remove additives and RNPs. The editing percentage under each condition was measured using a phenotypic readout detecting the loss of surface CD47 by flow cytometry.
Five different TAGE agent were tested. […] The cells were washed after one hour to remove additives and RNPs. The percentage of cells that were edited under each condition was measured using a phenotypic readout detecting the loss of surface CD47 by flow cytometry. Each data point represents the mean of biological triplicates, and the error bars represent the standard deviation of the mean.
The cells were washed after one hour to remove additives and RNPs. The percentage of cells that were edited under each condition was measured using a phenotypic readout detecting the loss of surface CD47 by flow cytometry. Each data point represents a biological replicate. […]
RNP at the indicated concentration was co-incubated with primary human T cells for 1 hour in T cell media with no additive (Baseline) or in T cell media with 0.5 M sucrose. […] The percentage of cells that were edited under each condition was measured using a phenotypic readout detecting the loss of surface CD47 by flow cytometry. […]

[4] = Light scattering at 340 nm to detect aggregate formation with protamine; assay type: physicochemical; conditions: protamine in buffer
Experimental: In this example, the impact of a cationic polymer (e.g., protamine) with or without glycerol on ex vivo editing by RNP TAGE agents was assessed. Ribonucleoproteins were prepared from TAGE agents including 4×NLS-Cas9-2×NLS or AsCas12a. A guide RNA targeting CD47 was associated with the respective TAGE agents to form ribonucleoproteins. […] The cells were washed after one hour to remove additives and RNPs. The percentage of T cells that were edited under each condition was measured using a phenotypic readout detecting the loss of surface CD47 by flow cytometry. Additionally, the levels of light scattering at 340 nm was assessed to detect aggregate formation.

4×NLS-Cas9(C80A)-2×NLS: TAGE agent: Cas9(C80A) with four N-terminal and two C-terminal NLS
DNA cleavage activity (dsDNA target): reduced activity in PBS

C=C1[C@@H](C)[C@H]2[C@H](Cc3ccccc3)NC(=O)[C@]23[C@H](OC(C)=O)/C=C/[C@@](C)(O)C(=O)[C@@H](C)C/C=C/[C@H]3[C@@H]1O [Cyto D, cytochalasin D]
editing of primary T cells by TAGE (primary human T cells [1]): decreased

CN(C)c1nc(N)c(C(=O)NC(=N)N)nc1Cl [DMA, 5-(N,N-dimethyl)-amiloride]
editing of primary T cells by TAGE (primary human T cells [1]): increased

CCN(c1nc(N)c(C(=O)N=C(N)N)nc1Cl)C(C)C [EIPA, 5-(N-ethyl-N-isopropyl)-amiloride]
editing of primary T cells by TAGE (primary human T cells [1]): increased

C/C1=C/C(=O)O[C@@H]2C[C@@H](CC[C@H](C)/C=C\C=C\CC1)O[C@@](O)([C@@H]1CSC(=O)N1)C2 [Lat A, latrunculin A]
editing of primary T cells by TAGE (primary human T cells [1]): decreased

CCN(CC)CCCC(C)Nc1ccnc2cc(Cl)ccc12 (stereo not shown) [chloroquine]
editing of T cells by TAGE RNPs (T cells): increased editing of T cells

O=C(N/N=C/c1ccc(O)c(O)c1)c1cc2ccccc2cc1O [dynasore, Dynasore]
editing of primary T cells by an antibody TAGE (primary human T cells [1]; nystatin 108 μM): not increased

OCC(O)CO [glycerol]
genome editing (percentage of edited T cells) (primary human T cells [2]; 3.75 μM 4×NLS-Cas9-2×NLS RNP): increased genome editing in cells | combined effect of glycerol and sodium chloride on genome editing (primary human T cells [2]; 3.75 μM 4×NLS-Cas9-2×NLS RNP): synergistic effect on genome editing | TAGE editing efficacy (primary human T cells [2]; 3.75 μM 4×NLS-Cas9-2×NLS RNP): can increase TAGE editing efficacy | glycerol concentration at peak editing ex vivo (primary human T cells [2]; human T cells, depending on the TAGE and the salt concentration): 7-10% and 15-16%

C[C@@H]1[C@H](O)[C@@H](C)/C=C/C=C/CC/C=C/C=C/C=C/C=C/C(O[C@H]2O[C@H](C)[C@@H](O)[C@H](N)[C@@H]2O)CC2O[C@](O)(CC(O)C(O)CCC(O)CC(O)CC(O)CC(=O)O[C@H]1C)CC(O)C2C(=O)O (stereo partly shown) [nystatin]
editing by TAGE containing a non-targeting antibody (AB27-TAGE26) (primary human T cells [1]; nystatin 108 μM): did not increase editing | editing of primary T cells by an antibody TAGE (primary human T cells [1]; nystatin 108 μM): increased

[Cl-].[Na+] [sodium chloride]
genome editing (percentage of edited T cells) (primary human T cells [2]; 3.75 μM 4×NLS-Cas9-2×NLS RNP): increased genome editing in cells | combined effect of glycerol and sodium chloride on genome editing (primary human T cells [2]; 3.75 μM 4×NLS-Cas9-2×NLS RNP): synergistic effect on genome editing

OC[C@H]1O[C@@](CO)(O[C@H]2O[C@H](CO)[C@@H](O)[C@H](O)[C@H]2O)[C@@H](O)[C@@H]1O [sucrose]
TAGE editing efficacy (primary human T cells [2]; 3.75 μM 4×NLS-Cas9-2×NLS RNP): can increase TAGE editing efficacy | lowest TAGE concentration at which editing is enabled (primary human T cells [3]; 0.5 M sucrose): 0.7 nM | effect of additive on editing (primary human T cells [3]; 0.5 M sucrose as formulation additive): improves editing

OC[C@@H](O)[C@H](O)[C@@H](O)CO [xylitol]
percentage of edited cells (primary human T cells [2]; 3.75 μM 4×NLS-Cas9-2×NLS RNP, 300 mM NaCl and ≥1 M xylitol): over 50% | TAGE editing efficacy (primary human T cells [2]; 3.75 μM 4×NLS-Cas9-2×NLS RNP): can increase TAGE editing efficacy

poly-glutamic acid [PGA]
editing by co-incubation (primary human T cells [2]; 3.75 μM Cas9 or AsCas12a RNP, PGA 1500-5500 Da or 15,000 Da, also at lower concentrations): inhibited editing by co-incubation

protamine
aggregation of Cas12a (340 nm light scattering) [4]: did not cause appreciable Cas12a aggregation | aggregation of 4×NLS-Cas9-2×NLS (340 nm light scattering) ([4]; low glycerol concentrations): caused aggregation | editing by Cas12a (primary human T cells [2]; protamine in buffer): limited benefits for Cas12a editing | editing by 4×NLS-Cas9-2×NLS (primary human T cells [2]; protamine in buffer, low glycerol concentrations): increased editing
